Laboratory results: PMC3805573, “Methylglyoxal Evokes Pain by Stimulating TRPA1” (PLoS ONE, 2013)

What was measured:
mouse TRPA1 = biological target: T1, mouse TRPA1 (Mus musculus, UniProt Q8BLA8); assay: [Ca2+]i-responses in CHO cells expressing mouse TRPA1; type: cell-based; details: CHO cells expressing mouse TRPA1, extracellular application; read-out: EC50, increases in [Ca2+]i
T1 construct: expressed in transfected cells; host or cells: CHO cells
Protocol: (§1) Untransfected CHO cells and CHO cells expressing mouse or human TRPA1 were grown in MEM Glutamax or AQ medium supplemented with penicillin (100 U/ml), streptomycin (100 µg/ml), and FCS (10%). Plasmids encoding mutated TRPA1 channels were kindly provided by Dr. Ardem Patapoutian. All media, serum and antibiotics were from Invitrogen (Paisley, UK) or Sigma (Poole, UK).
(§2) Cells were loaded with 2 µM Fura-2 AM (Molecular Probes, Paisley, UK) in the presence of 1 mM probenecid for ∼1 hr. The experiments were performed in a physiological saline solution containing (in mM) 140 NaCl, 5 KCl, 10 glucose, 10 HEPES, 2 CaCl2, and 1 MgCl2, buffered to pH 7.4 with NaOH. Compounds were applied to cells by local continuous microperfusion of solution through a fine tube placed in close proximity of the cells studied. Images of a group of cells were captured every 2 sec using 340 and 380 nm excitation wavelengths with emission measured at 520 nm with a microscope based imaging system (PTI, New Jersey). […]
(§3) Changes in intracellular calcium ([Ca^2+]i) in response to agonists were determined in TRPA1 expressing CHO cells and MDCK cells using a Flexstation 3 (Molecular Devices). […] Basal emission ratios (340 nm/380 nm) were measured and changes in ratio determined at various times after compound addition.

human TRPA1 = biological target: T2, human TRPA1 (Homo sapiens, UniProt O75762); assay: [Ca2+]i-responses in CHO cells expressing human TRPA1; type: cell-based; details: CHO cells expressing human TRPA1, extracellular application; read-out: EC50, increases in [Ca2+]i
T2 construct: expressed in transfected cells; host or cells: CHO cells
Protocol: as §1, §2, §3

TRPA1 [1] = assay: Whole cell voltage-clamp, TRPA1 CHO cells; type: cell-based; details: MG 0.5 mM (Fig. 1B)
Protocol: (§4) DRG neurons and TRPA1 CHO cells were studied under voltage-clamp conditions using an Axopatch 200B amplifier and pClamp 10.0 software (Molecular Devices, Sunnyvale, CA). Except where stated otherwise, whole cell recordings were performed at a holding potential of –60 mV using an extracellular solution with the composition described above for [Ca^2+]i measurements. Borosilicate glass pipettes (2–5 MΩ, 75–80% series resistance compensation) were filled with (in mM) 140 KCl, 1 CaCl2, 2 MgATP, 10 EGTA, and 10 HEPES buffered to pH 7.4 (KOH). Excised inside-out patches were recorded using a Ca^2+-free solution containing (in mM) 140 NaCl, 5 KCl, 1 MgCl2, 10 HEPES and 1 EGTA, pH 7.4 (NaOH) in the pipettes and perfused with 140 KCl, 2 MgATP, 1 EGTA, and 10 HEPES (pH 7.4). DRG neurons were studied using an intracellular solution containing (in mM) 140 CsCl, 1 CaCl2, 2 MgATP, 10 EGTA and 10 HEPES, pH 7.4 (CsOH). Drugs were applied by local microperfusion with a rapid solution changer (RSC-200, Biologic, Claix, France).

DRG neurons [2] = assay: [Ca2+]i-responses in cultured DRG neurons; type: cell-based, mice
Protocol: (§5) DRG neurons were prepared from adult male or female mice using methods described previously. Isolated neurons were maintained in MEM AQ (5.6 mM glucose) supplemented with 10% fetal bovine serum, 100 U/ml penicillin, 100 µg/ml streptomycin and 50 ng/ml NGF (Promega, Southampton, UK) for less than 24 hours before experimentation.
(§6) Cells were loaded with 2 µM Fura-2 AM (Molecular Probes, Paisley, UK) in the presence of 1 mM probenecid for ∼1 hr. The experiments were performed in a physiological saline solution containing (in mM) 140 NaCl, 5 KCl, 10 glucose, 10 HEPES, 2 CaCl2, and 1 MgCl2, buffered to pH 7.4 with NaOH. Compounds were applied to cells by local continuous microperfusion of solution through a fine tube placed in close proximity of the cells studied. Images of a group of cells were captured every 2 sec using 340 and 380 nm excitation wavelengths with emission measured at 520 nm with a microscope based imaging system (PTI, New Jersey). Analyses of emission intensity ratios at 340 nm/380 nm excitation (R, in individual cells) were performed using the ImageMaster suite of software.

DRG neurons [3] = assay: Voltage clamp recordings of DRG neurons; type: cell-based, mice; details: -60 mV, 15 µM Ca2+, a proportion of neurons
Protocol: as §5, §4

mTRPA1 K712Q = biological target: T3, mTRPA1 K712Q (Mus musculus, UniProt Q8BLA8, K712Q); assay: [Ca2+]i-responses of mTRPA1 K712Q in CHO cells; type: cell-based; details: MG 2 mM
T3 construct: expressed in transfected cells; host or cells: CHO cells
Protocol: as §1, §6

TRPA1 [4] = assay: Outward TRPA1 currents in absence of Ca2+, effect of DTT; type: cell-based; details: MG 1 mM, +60 mV, Ca2+-free
Protocol: as §4
It is possible that MG stimulates TRPA1 through formation of reversible hemithioacetals with cysteine residues other than those examined here, [40]. To investigate this possibility we examined the effect of the reducing agent dithiothreitol (DTT, 2 mM) on outward TRPA1 currents recorded in the absence of Ca^2+ (5 mM BAPTA intracellularly, 1 mM EGTA extracellularly) to avoid Ca^2+-mediated inactivation or desensitization. We used DTT to determine whether disulfide bridge formation or reversible noncovalent interactions contribute to the agonist activity of MG. DTT is expected to rapidly reduce cystine bridges to free thiols, but also to form hemithioacetals with MG, thereby accelerating current decay. Covalent modification of arginine and lysine residues by MG and modification of cysteine residues by AITC are on the other hand resistant to DTT [31]. […] This is consistent with the expected oxidative formation of cystine bridges and their reduction by DTT [4]. The contrast between the stable currents produced by H2O2 and the spontaneously reversible currents evoked by MG highlights the reversible nature of the interaction between MG and TRPA1. […] We also observed that repeated applications of MG and H2O2 evoked reproducible current responses of similar amplitudes, whereas an application of AITC prevented subsequent channel activation by AITC challenges (Fig. 4C-E). We conclude that MG acts through a reversible interaction with TRPA1 and that H2O2 relies on DTT sensitive oxidative modification of TRPA1 protein for its activity. […] In contrast, the covalent modification produced by AITC appears irreversible and renders TRPA1 refractory to subsequent activation.

[5] = system: Trpa1+/+ and Trpa1-/- mice; assay: Intraplantar injection, pain-related behaviors; type: in vivo; details: intraplantar 250 nmoles/paw
Protocol: Data shown are from male and female homozygote Trpa1^− ^/− and Trpa1 ^+/+. The Trpa1-null mice and wild-type littermates were bred from heterozygotic mice provided by Drs. Kelvin Kwan and David Corey (Harvard Medical School, Boston, MA).
Methylglyoxal (250 nmoles in 25 µl saline) was injected subcutaneously into the plantar surface of one of the hind paws using a 50 µl luer-syringe (Hamilton Co.) fitted with a 26-gauge x 3/8 inch intradermal needle. Immediately after injection, mice were placed inside a Perspex chamber and the duration of the pain-related behaviors (licking and biting or flinching and shaking of the injected paw) recorded using a digital stop-watch. Total pain response times over the first 2 minutes were used for analysis as the pain behaviors were largely confined to this period. The glyoxalase 1 inhibitor Sr-p-Bromobenzylglutathione cyclopentyl diester (50 mg/kg) was dissolved in 2% DMSO/20% Tween 80 in saline and administered by intraperitoneal (i.p.) injection (5 ml/kg).

T3 sequence (Q8BLA8 whole entry K712Q): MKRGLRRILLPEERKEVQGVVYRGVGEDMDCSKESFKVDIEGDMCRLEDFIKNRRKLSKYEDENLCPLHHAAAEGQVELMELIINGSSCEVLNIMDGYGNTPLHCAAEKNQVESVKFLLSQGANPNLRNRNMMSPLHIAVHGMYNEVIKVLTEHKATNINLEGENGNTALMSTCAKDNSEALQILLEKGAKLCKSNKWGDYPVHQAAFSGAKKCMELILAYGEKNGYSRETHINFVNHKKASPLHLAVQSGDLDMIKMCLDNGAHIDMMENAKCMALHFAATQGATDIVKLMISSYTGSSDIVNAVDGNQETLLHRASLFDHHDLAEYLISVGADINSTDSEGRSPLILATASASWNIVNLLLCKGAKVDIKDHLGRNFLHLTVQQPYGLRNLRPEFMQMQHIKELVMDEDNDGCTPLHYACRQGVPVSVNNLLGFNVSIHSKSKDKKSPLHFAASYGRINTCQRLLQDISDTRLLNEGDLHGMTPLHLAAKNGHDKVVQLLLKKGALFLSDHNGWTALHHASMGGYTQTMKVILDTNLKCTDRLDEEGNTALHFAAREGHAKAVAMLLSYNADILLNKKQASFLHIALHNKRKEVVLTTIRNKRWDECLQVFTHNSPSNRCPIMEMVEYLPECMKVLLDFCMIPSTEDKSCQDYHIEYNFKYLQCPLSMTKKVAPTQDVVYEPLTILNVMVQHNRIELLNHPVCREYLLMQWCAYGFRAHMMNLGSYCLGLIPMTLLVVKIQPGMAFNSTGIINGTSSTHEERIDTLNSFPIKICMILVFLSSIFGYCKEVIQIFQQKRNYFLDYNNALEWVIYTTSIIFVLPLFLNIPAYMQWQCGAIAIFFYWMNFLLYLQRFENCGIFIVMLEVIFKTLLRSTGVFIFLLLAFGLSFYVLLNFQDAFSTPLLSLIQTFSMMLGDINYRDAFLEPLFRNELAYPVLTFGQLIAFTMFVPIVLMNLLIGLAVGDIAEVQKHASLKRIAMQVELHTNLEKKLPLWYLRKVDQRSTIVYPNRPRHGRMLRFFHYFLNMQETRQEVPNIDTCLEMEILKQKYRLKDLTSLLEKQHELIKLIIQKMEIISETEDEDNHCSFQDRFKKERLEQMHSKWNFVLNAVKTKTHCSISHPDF
T1 sequence (Q8BLA8 whole entry): as the sequence (Q8BLA8 whole entry K712Q) above, with Q712K counted along it
T2 sequence (O75762 whole entry): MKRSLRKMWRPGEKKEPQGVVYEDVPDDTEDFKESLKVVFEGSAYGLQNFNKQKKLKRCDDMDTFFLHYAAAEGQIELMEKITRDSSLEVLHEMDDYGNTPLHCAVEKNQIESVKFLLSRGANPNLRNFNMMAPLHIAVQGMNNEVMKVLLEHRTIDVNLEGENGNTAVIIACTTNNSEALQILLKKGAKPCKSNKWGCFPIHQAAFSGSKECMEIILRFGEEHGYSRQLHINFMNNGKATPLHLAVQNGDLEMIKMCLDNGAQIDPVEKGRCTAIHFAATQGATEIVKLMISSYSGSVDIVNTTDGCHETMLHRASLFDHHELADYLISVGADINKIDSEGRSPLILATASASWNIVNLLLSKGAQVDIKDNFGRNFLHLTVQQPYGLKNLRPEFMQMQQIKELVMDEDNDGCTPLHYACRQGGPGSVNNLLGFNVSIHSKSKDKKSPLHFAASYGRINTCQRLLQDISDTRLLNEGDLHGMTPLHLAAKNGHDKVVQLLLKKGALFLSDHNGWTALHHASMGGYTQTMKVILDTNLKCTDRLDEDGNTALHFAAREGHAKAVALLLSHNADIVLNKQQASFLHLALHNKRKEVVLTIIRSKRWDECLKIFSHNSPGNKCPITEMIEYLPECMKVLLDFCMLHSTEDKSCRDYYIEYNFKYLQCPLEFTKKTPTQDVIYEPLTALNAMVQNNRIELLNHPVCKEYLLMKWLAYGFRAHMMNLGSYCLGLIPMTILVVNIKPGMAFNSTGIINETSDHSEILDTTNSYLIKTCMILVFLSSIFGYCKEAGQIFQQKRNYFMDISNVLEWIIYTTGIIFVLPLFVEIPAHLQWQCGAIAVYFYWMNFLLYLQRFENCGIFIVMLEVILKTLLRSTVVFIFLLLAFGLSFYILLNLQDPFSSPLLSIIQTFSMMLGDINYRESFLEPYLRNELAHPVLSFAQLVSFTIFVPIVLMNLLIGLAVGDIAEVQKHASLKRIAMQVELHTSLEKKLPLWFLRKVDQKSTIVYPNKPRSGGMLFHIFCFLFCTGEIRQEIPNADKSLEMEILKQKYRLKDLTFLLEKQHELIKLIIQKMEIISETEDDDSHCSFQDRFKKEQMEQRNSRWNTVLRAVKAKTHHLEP

CC(=O)C=O [MG, methylglyoxal]
EC50 (mouse TRPA1): 900 ± 100 µM | EC50 (human TRPA1): 700 ± 200 µM | whole cell current (TRPA1 [1]): produced inward currents | capsaicin-sensitive DRG neurons with [Ca2+]i-responses (DRG neurons [2]; neurons from Trpa1+/+ mice (240 of 333)): 72% | DRG neurons with [Ca2+]i-responses (DRG neurons [2]; neurons from Trpa1-/- mice (1 of 322)): 0% | current in DRG neurons (DRG neurons [3]): evoked robust inward currents | amplitude of [Ca2+]i-responses in mTRPA1 K712Q compared to WT mTRPA1 (mTRPA1 K712Q): significantly reduced | effect of DTT (2 mM) on agonist-evoked TRPA1 current (TRPA1 [4]): dramatically accelerated the TRPA1 current decay | outward TRPA1 current after removal of agonist (TRPA1 [4]): partially decayed with time after removal of MG | pain-related behaviors during 2 min after injection [5]: induced a significant nociceptive response
